US20190375778A1, “ADENOSINE DERIVATIVES FOR USE IN THE TREATMENT OF CANCER” (NuCana plc, priority 2016, published 2019)
Like-named read-outs stand apart in the source and are kept apart here.

Tests used:
RPMI-8226 = assay: CellTiterGlo viability assay, RPMI-8226; assay type: cell-based, Human; settings: for IC50: read-out: IC50 RPMI-8226
Outline: (§1)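 Compounds serially diluted 3.16-fold in DMSO, prewarmed in media to 37 °C, and added to cells in duplicate (9 concentrations, 198 μM to 19.9 nM final, 0.5% DMSO). Plates incubated 3 days in a CO2 incubator, then viability read with CellTiterGlo.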

HT29 = assay: CellTiterGlo viability assay, HT29; assay type: cell-based; settings: for IC50: read-out: IC50 HT29
Description: (§2) In vitro viability assay were performed to assess the effects of compounds on cell viability in selected cell lines over ˜72 hrs using the CellTiterGlo (CTG, Promega-G7573) assay. The tests were performed in duplicates with treatment of compounds at 9 points, 3.16 folds titration in 96 well plates over ˜72 hrs. The compound starting concentrations were 198 μM. Cell viability assay using CellTiterGlo in 96-well plate were performed. Compound treatment 72 hrs, standard growth conditions, duplicates. Compounds were dissolved to 40 mM with thawed […]. Compounds were serially diluted at 3.16 fold in thawed DMSO, and warmed to 37° C. before being dissolved in media (2 μl+200 μl). After compounds were dissolved in media, media containing compounds were warmed to 37° C. in incubator and then compounds in media were added to cell plates (50 μl+50 μl) in duplicates. The compounds' final concentrations were from […] to 19.9 nM. All compound solubilities were checked and recorded again, then the plates were transferred to CO2 tissue culture incubator immediately and incubated for 3 days. DMSO final concentration is 0.5%.

HL-60 = assay: CellTiterGlo viability assay, HL-60; assay type: cell-based; settings: for IC50: read-out: IC50 HL-60
Outline: as §1

human T-lymphocyte CEM = assay: Cell proliferation (Coulter count) assay, CEM; assay type: cell-based; settings: 72 h, read-out: absolute IC50, CEM
Outline: (§3)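 Cells grown in DMEM with 10% FBS. HeLa seeded at 10 000 cells/well, compound added after 24 h, counted day 5; L1210 and CEM seeded at 60 000 cells/well with compound, counted after 48 h and 72 h respectively. IC50 is concentration halving proliferation by Coulter count.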

K562 = assay: CellTiterGlo viability assay, K562; assay type: cell-based; settings: for IC50: read-out: IC50 K562
Outline: as §1

Murine leukemia L1210 = assay: Cell proliferation (Coulter count) assay, L1210; assay type: cell-based; settings: Mus musculus, 48 h, read-out: absolute IC50, L1210
Outline: as §3

MiaPaCa-2 = assay: CellTiterGlo viability assay, MiaPaCa-2; assay type: cell-based; settings: for IC50: read-out: IC50 MiaPaCa-2
Description: as §2

Z138 = assay: CellTiterGlo viability assay, Z138; assay type: cell-based; settings: for IC50: read-out: IC50 Z138
Description: as §2

KG-1 = assay: CellTiterGlo viability assay, KG-1; assay type: cell-based; settings: Homo sapiens, read-out: IC50 KG-1
Outline: as §1

HepG2 = assay: CellTiterGlo viability assay, HepG2; assay type: cell-based; settings: for IC50: read-out: IC50 HepG2
Description: as §2

HS445 = assay: CellTiterGlo viability assay, HS445; assay type: cell-based; settings: for IC50: read-out: IC50 HS445
Description: as §2

HEL92.1.7 = assay: CellTiterGlo viability assay, HEL92.1.7; assay type: cell-based; settings: for IC50: read-out: IC50 HEL92.1.7
Outline: as §1

C[C@H](NP(=O)(OC[C@H]1O[C@@H](n2c(Cl)nc3c(N)ncnc32)[C@H](O)[C@@H]1O)Oc1ccccc1)C(=O)OCc1ccccc1 (mixture of isomers) [C, (2S)-Benzyl 2-(((((2R,3S,4R,5R)-5-(6-amino-8-chloro-9H-purin-9-yl)-3,4-dihydroxy-tetrahydrofuran-2-yl)methoxy)(phenoxy)phosphoryl)amino)propanoate]
IC50 (RPMI-8226; Homo sapiens, RPMI-8226, 72 h): 5 to 15 µM
IC50 (HT29; Homo sapiens, HT-29, 72 h): 5 to 15 µM
IC50 (HL-60; Homo sapiens, HL-60, 72 h): 5 to 15 µM
IC50 (human T-lymphocyte CEM): 15 to 100 µM
IC50 (K562; Homo sapiens, K562, 72 h): 15 to 100 µM
IC50 (Murine leukemia L1210): 15 to 100 µM
IC50 (MiaPaCa-2; Homo sapiens, MIA PaCa-2, 72 h): 5 to 15 µM
IC50 (Z138; Homo sapiens, Z-138, 72 h): 0.1 to 5 µM
IC50 (KG-1; KG-1, 72 h): > 100 µM
IC50 (HepG2; Homo sapiens, HepG2, 72 h): 15 to 100 µM
IC50 (HS445; Hs 445, 72 h): > 100 µM
IC50 (HEL92.1.7; Homo sapiens, HEL 92.1.7, 72 h): 15 to 100 µM

Nc1ncnc2c1nc(Cl)n2[C@@H]1O[C@H](COP(=O)(NCC(=O)OC2CCCCC2)Oc2ccccc2)[C@@H](O)[C@H]1O (mixture of isomers) [Compound A, Cyclohexyl 2-(((((2R,3S,4R,5R)-5-(6-amino-8-chloro-9H-purin-9-yl)-3,4-dihydroxy-tetrahydrofuran-2-yl)methoxy)(phenoxy)phosphoryl)amino)acetate]
IC50 (RPMI-8226; Homo sapiens, RPMI-8226, 72 h): 5 to 15 µM
IC50 (HT29; Homo sapiens, HT-29, 72 h): 15 to 100 µM
IC50 (HL-60; Homo sapiens, HL-60, 72 h): 5 to 15 µM
IC50 (human T-lymphocyte CEM): 15 to 100 µM
IC50 (K562; Homo sapiens, K562, 72 h): 5 to 15 µM
IC50 (Murine leukemia L1210): 15 to 100 µM
IC50 (MiaPaCa-2; Homo sapiens, MIA PaCa-2, 72 h): 5 to 15 µM
IC50 (Z138; Homo sapiens, Z-138, 72 h): 0.1 to 5 µM
IC50 (KG-1; KG-1, 72 h): > 100 µM
IC50 (HepG2; Homo sapiens, HepG2, 72 h): 5 to 15 µM
IC50 (HS445; Hs 445, 72 h): > 100 µM
IC50 (HEL92.1.7; Homo sapiens, HEL 92.1.7, 72 h): 5 to 15 µM

Nc1ncnc2c1nc(Cl)n2[C@@H]1O[C@H](COP(=O)(NCC(=O)OCc2ccccc2)Oc2ccccc2)[C@@H](O)[C@H]1O (mixture of isomers) [Compound B, Benzyl 2-(((((2R,3S,4R,5R)-5-(6-amino-8-chloro-9H-purin-9-yl)-3,4-dihydroxytetra-hydrofuran-2-yl)methoxy)(phenoxy)phosphoryl)amino)acetate]
IC50 (RPMI-8226; Homo sapiens, RPMI-8226, 72 h): 0.1 to 5 µM
IC50 (HT29; Homo sapiens, HT-29, 72 h): 0.1 to 5 µM
IC50 (HL-60; Homo sapiens, HL-60, 72 h): 0.1 to 5 µM
IC50 (human T-lymphocyte CEM): 5 to 15 µM
IC50 (K562; Homo sapiens, K562, 72 h): 0.1 to 5 µM
IC50 (Murine leukemia L1210): 5 to 15 µM
IC50 (MiaPaCa-2; Homo sapiens, MIA PaCa-2, 72 h): 0.1 to 5 µM
IC50 (Z138; Homo sapiens, Z-138, 72 h): 0.1 to 5 µM
IC50 (KG-1; KG-1, 72 h): 0.1 to 5 µM
IC50 (HepG2; Homo sapiens, HepG2, 72 h): 0.1 to 5 µM
IC50 (HS445; Hs 445, 72 h): 5 to 15 µM
IC50 (HEL92.1.7; Homo sapiens, HEL 92.1.7, 72 h): 0.1 to 5 µM

Nc1ncnc2c1nc(Cl)n2[C@@H]1O[C@H](CO)[C@@H](O)[C@H]1O [8-chloroadenosine, 8-Chloroadenosine, reference compound]
Top in. % RPMI-8226 (RPMI-8226): 96.2%
IC50 (RPMI-8226; Homo sapiens, RPMI-8226, CellTiterGlo, 72 hrs): 0.1 to 5 µM
EC50 (RPMI-8226; Homo sapiens, RPMI-8226, read-out: Ab EC50 (μM) RPMI-8226): 1.34 µM
Top in. % HT29 (HT29): 80.2%
IC50 (HT29; Homo sapiens, HT-29, CellTiterGlo, 72 hrs): 0.1 to 5 µM
EC50 (HT29; Homo sapiens, HT-29, read-out: Ab EC50 (μM) HT29): 1.35 µM
Top in. % HL-60 (HL-60): 97.1%
IC50 (HL-60; Homo sapiens, HL-60, CellTiterGlo, 72 hrs): 0.1 to 5 µM
EC50 (HL-60; Homo sapiens, HL-60, read-out: Ab EC50 (μM) HL-60): 10.2 µM
IC50 (human T-lymphocyte CEM): 0.1 to 5 µM
Top in. % K562 (K562): 82.0%
IC50 (K562; Homo sapiens, K562, CellTiterGlo, 72 hrs): 0.1 to 5 µM
EC50 (K562; Homo sapiens, K562, read-out: Ab EC50 (μM) K562): 11.8 µM
IC50 (Murine leukemia L1210): 0.1 to 5 µM
Top in. % MiaPa-Ca-2 (MiaPaCa-2): 86.2%
IC50 (MiaPaCa-2; Homo sapiens, MIA PaCa-2, CellTiterGlo, 72 hrs): 0.1 to 5 µM
EC50 (MiaPaCa-2; Homo sapiens, MIA PaCa-2, read-out: Ab EC50 (μM) MiaPa-Ca-2): 0.44 µM
Top in. % Z-138 (Z138): 88.7%
IC50 (Z138; Homo sapiens, Z-138, CellTiterGlo, 72 hrs): 0.1 to 5 µM
EC50 (Z138; Homo sapiens, Z-138, read-out: Ab EC50 (μM) Z-138): 1.44 µM
IC50 (KG-1; KG-1, CellTiterGlo, 72 hrs): 0.1 to 5 µM
Top in. % HepG2 (HepG2): 78.5%
IC50 (HepG2; Homo sapiens, HepG2, CellTiterGlo, 72 hrs): 0.1 to 5 µM
EC50 (HepG2; Homo sapiens, HepG2, read-out: Ab EC50 (μM) HepG2): 1.13 µM
Top in. % HS445 (HS445): 78.1%
IC50 (HS445; Hs 445, CellTiterGlo, 72 hrs): 5 to 15 µM
EC50 (HS445; Hs 445, read-out: Ab EC50 (μM) HS445): 4.5 µM
Top in. % HEL92.1.7 (HEL92.1.7): 96.4%
IC50 (HEL92.1.7; Homo sapiens, HEL 92.1.7, CellTiterGlo, 72 hrs): 0.1 to 5 µM
EC50 (HEL92.1.7; Homo sapiens, HEL 92.1.7, read-out: Ab EC50 (μM) HEL92.1.7): 2.2 µM
